Measurements published in US8778982B2, “Synergistic microbicidal compositions” (Rohm and Haas Company, priority 2007, dated 2014).
Where “and” joins values, the source holds several entries; their conditions need not be identical. Equal entries are not always repeated. Where two headings read alike, the source gives them in different places. Blank lines part the entries; values can stand above or below the compound they belong to.

Assays:
Type in all cases: cell-based
[1] = test system: Candida albicans (C. albicans—ATCC 10231); assay: Synergy test, microtiter plate high resolution MIC assay, PDB medium, yeast; conditions: for Qb: B alone where Qa = 0; for MIC: Candida albicans
Description: (§1) One measure of synergism is the industrially accepted method described by Kull, F. C.; Eisman, P. C.; Sylwestrowicz, H. D. and Mayer, R. L., in Applied Microbiology 9:538-541 (1961), using the ratio determined by the formula: Qa/QA+Qb/QB=Synergy Index(“SI”) wherein: • QA=concentration of compound A (first component) in ppm, acting alone, which produced an end point (MIC of Compound A). • Qa=concentration of compound A in ppm, in the mixture, which produced an end point. • QB=concentration of compound B (second component) in ppm, acting alone, which produced an end point (MIC of Compound B). • Qb=concentration of compound B in ppm, in the mixture, which produced an end point.
(§2) When the sum of Qa/QA and Qb/QB is greater than one, antagonism is indicated. […] The lower the SI, the greater is the synergy shown by that particular mixture. The minimum inhibitory concentration (MIC) of a microbicide is the lowest concentration tested under a specific set of conditions that prevents the growth of the tested microorganisms.
(§3) Synergy tests were conducted using standard microtiter plate assays with media designed for optimal growth of the test microorganism. Minimal salt medium supplemented with 0.2% glucose and 0.1% yeast extract (M9GY medium) was used for testing bacteria; Potato Dextrose Broth (PDB medium) was used for testing yeast and mold. In this method, a wide range of combinations of microbicides and other personal care raw materials was tested by conducting high resolution MIC assays in the presence of various concentrations of CMIT/MIT, MIT, or BIT. High resolution MICs were determined by adding varying amounts of microbicide to one column of a microtitre plate and doing subsequent […] dilutions using an automated liquid handling system to obtain a series of endpoints ranging from 2 ppm to 10,000 ppm active ingredient.
(§4) The synergy of the combinations of the present invention was determined against a bacterium, Escherichia coli (E. coli—ATCC #8739), a yeast, Candida albicans (C. albicans—ATCC 10231), and a mold, Aspergillus niger (A. niger—ATCC 16404). The bacteria were used at a concentration of about 5×10^6 bacteria per mL and the yeast and mold at 5×10^5 fungi per mL. These microorganisms are representative of natural contaminants in many consumer and industrial applications. […] (yeast and mold) or 30° C. (bacteria).

[2] = test system: Aspergillus niger (A. niger—ATCC 16404); assay: Synergy test, microtiter plate high resolution MIC assay, PDB medium, mold; conditions: for Qb: B alone where Qa = 0; for MIC: Aspergillus niger
Description: as §1, §2, §3, §4

[3] = test system: Escherichia coli (E. coli—ATCC #8739); assay: Synergy test, microtiter plate high resolution MIC assay, M9GY medium, bacterium; conditions: for Qb: B alone where Qa = 0; for MIC: Escherichia coli
Description: as §1, §2, §3, §4

[4] = C. albicans 10231 - PDB (6 days), A = BIT, B = Caprylic acid
[5] = A. niger 16404 - PDB (3 days), A = BIT, B = Caprylic acid
[6] = E. coli 8739 - M9GY (1 day), A = BIT, B = Caprylic acid
[7] = C. albicans 10231 - PDB (6 days), A = MIT, B = Lauric arginate
[8] = A. niger 16404 - PDB (10 days), A = MIT, B = Lauric arginate
[9] = E. coli 8739 - M9GY (1 day), A = MIT, B = Lauric arginate
[10] = ATCC16404, 72 h, A. niger 16404, PDB, 3 days, 25° C., read-out: MIC of the component acting alone (QA or QB)
[11] = ATCC8739, 24 h, E. coli 8739, M9GY, 1 day, 30° C., read-out: MIC of the component acting alone (QA or QB)
[12] = C. albicans 10231 - PDB (6 days), A = MIT, B = Glyceryl caprate
[13] = A. niger 16404 - PDB (10 days), A = MIT, B = Glyceryl caprate
[14] = E. coli 8739 - M9GY (1 day), A = MIT, B = Glyceryl caprate

SMILES: O=c1[nH]sc2ccccc12 [BIT, 1,2-benzisothiazolin-3-one]
MIC of the component acting alone (Qa or Qb with the other component at 0) ([1]; C. albicans 10231, PDB, 1 day): 15.00 ppm
SI (synergy index) ([1]; C. albicans 10231, PDB, 1 day): 1.00
MIC of the component acting alone (Qa or Qb with the other component at 0) ([1]; C. albicans 10231, PDB, 2 days): 30.00 ppm
SI (synergy index) ([1]; C. albicans 10231, PDB, 2 days): 1.00
MIC of the component acting alone (Qa or Qb with the other component at 0) ([1]; C. albicans 10231, PDB, 6 days): 30.00 ppm and 40.00 ppm
SI (synergy index) ([1]; C. albicans 10231, PDB, 6 days): 1.00
SI [1, 4]: 1.00
Qa ([1]; C. albicans 10231 - PDB (6 days), A = BIT, B = Caprylic acid, A alone where Qb = 0): 20 ppm
MIC of the component acting alone (Qa or Qb with the other component at 0) ([2]; A. niger 16404, PDB, 3 days): 50 ppm
SI (synergy index) ([2]; A. niger 16404, PDB, 3 days): 1.00
MIC of the component acting alone (Qa or Qb with the other component at 0) ([2]; A. niger 16404, PDB, 4 days): 50 ppm
SI (synergy index) ([2]; A. niger 16404, PDB, 4 days): 1.00
MIC of the component acting alone (Qa or Qb with the other component at 0) ([2]; A. niger 16404, PDB, 10 days): 100.00 ppm
SI (synergy index) ([2]; A. niger 16404, PDB, 10 days): 1.00
SI [2, 5]: 1.00
Qa ([2]; A. niger 16404 - PDB (3 days), A = BIT, B = Caprylic acid, A alone where Qb = 0): 50 ppm
MIC of the component acting alone (Qa or Qb with the other component at 0) ([3]; E. coli 8739, M9GY, 1 day): 20.00 ppm
SI (synergy index) ([3]; E. coli 8739, M9GY, 1 day): 1.00
MIC of the component acting alone (Qa or Qb with the other component at 0) ([3]; E. coli 8739, M9GY, 2 days): 20.00 ppm
SI (synergy index) ([3]; E. coli 8739, M9GY, 2 days): 1.00
SI [3, 6]: 1.00
Qa ([3]; E. coli 8739 - M9GY (1 day), A = BIT, B = Caprylic acid, A alone where Qb = 0): 20 ppm

SMILES: CCCCCCCCCCCC(=O)N[C@@H](CCCNC(=N)N)C(=O)OCC.Cl [Lauric arginate, N-α-lauoryl-L-arginine ethyl ester monohydrochloride]
Synergy Index (SI) = Qa/QA+Qb/QB ([1]; C. albicans 10231, PDB, 1 day): 1.00
MIC of the component acting alone (QA or QB) ([1]; C. albicans 10231, PDB, 1 day, 25° C.): 800 ppm
MIC of the component acting alone (Qa or Qb with the other component at 0) ([1]; C. albicans 10231, PDB, 6 days): 200 ppm
SI (synergy index) ([1]; C. albicans 10231, PDB, 6 days): 1.00
SI [1, 7]: 1.00
Qb [1, 7]: 800 ppm
MIC of the component acting alone (Qa or Qb with the other component at 0) ([2]; A. niger 16404, PDB, 3 days): 2000 ppm
SI (synergy index) ([2]; A. niger 16404, PDB, 3 days): 1.00
Synergy Index (SI) = Qa/QA+Qb/QB ([2]; A. niger 16404, PDB, 4 days): 1.00
MIC of the component acting alone (QA or QB) ([2]; A. niger 16404, PDB, 4 days, 25° C.): 2000 ppm
SI [2, 8]: 1.00
Qb [2, 8]: 2000 ppm
MIC of the component acting alone (Qa or Qb with the other component at 0) ([3]; E. coli 8739, M9GY, 1 day): 300 ppm
SI (synergy index) ([3]; E. coli 8739, M9GY, 1 day): 1.00
Synergy Index (SI) = Qa/QA+Qb/QB ([3]; E. coli 8739, M9GY, 1 day): 1.00
MIC of the component acting alone (QA or QB) ([3]; E. coli 8739, M9GY, 1 day, 30° C.): 200 ppm
SI [3, 9]: 1.00
Qb [3, 9]: 300 ppm

MIC ([1]; ATCC10231, 144 h, C. albicans 10231, PDB, 6 days, 25° C., read-out: MIC of the component acting alone (QA or QB)): 2000 µg/mL
MIC [2, 10]: 2000 µg/mL
MIC ([2]; ATCC16404, 240 h, A. niger 16404, PDB, 10 days, 25° C., read-out: MIC of the component acting alone (QA or QB)): 2000 µg/mL
MIC [3, 11]: 8000 µg/mL
MIC ([3]; ATCC8739, 48 h, E. coli 8739, M9GY, 2 days, 30° C., read-out: MIC of the component acting alone (QA or QB)): 8000 µg/mL
SMILES: CCCCCCCC(=O)O [Caprylic acid, octanoic acid]
Synergy Index (SI) = Qa/QA+Qb/QB ([1]; C. albicans 10231, PDB, 6 days): 1.00
SI [1, 4]: 1.00
Qb [1, 4]: 2000 ppm
Synergy Index (SI) = Qa/QA+Qb/QB ([2]; A. niger 16404, PDB, 3 days): 1.00
Synergy Index (SI) = Qa/QA+Qb/QB ([2]; A. niger 16404, PDB, 10 days): 1.00
SI [2, 5]: 1.00
Qb [2, 5]: 2000 ppm
Synergy Index (SI) = Qa/QA+Qb/QB ([3]; E. coli 8739, M9GY, 1 day): 1.00
Synergy Index (SI) = Qa/QA+Qb/QB ([3]; E. coli 8739, M9GY, 2 days): 1.00
SI [3, 6]: 1.00
Qb [3, 6]: 8000 ppm

MIC ([1]; ATCC10231, 24 h, C. albicans 10231, PDB, 1 day, 25° C., read-out: MIC of the component acting alone (QA or QB)): 2000 µg/mL
MIC ([1]; ATCC10231, 144 h, C. albicans 10231, PDB, 6 days, read-out: MIC of the component acting alone (Qa or Qb with the other component at 0)): 2000 µg/mL
MIC [2, 10]: 2000 µg/mL
MIC ([2]; ATCC16404, 72 h, A. niger 16404, PDB, 3 days, read-out: MIC of the component acting alone (Qa or Qb with the other component at 0)): 2000 µg/mL
MIC [3, 11]: 20000 µg/mL
MIC ([3]; ATCC8739, 24 h, E. coli 8739, M9GY, 1 day, read-out: MIC of the component acting alone (Qa or Qb with the other component at 0)): 20000 µg/mL
SMILES: CCCCCCCCCC(=O)OCC(O)CO (centres unmarked) [Glyceryl caprate]
Synergy Index (SI) = Qa/QA+Qb/QB ([1]; C. albicans 10231, PDB, 1 day): 1.00
SI (synergy index) ([1]; C. albicans 10231, PDB, 6 days): 1.00
SI [1, 12]: 1.00
Qb [1, 12]: 2000 ppm
SI (synergy index) ([2]; A. niger 16404, PDB, 3 days): 1.00
Synergy Index (SI) = Qa/QA+Qb/QB ([2]; A. niger 16404, PDB, 3 days): 1.00
SI [2, 13]: 1.00
Qb [2, 13]: 2000 ppm
SI (synergy index) ([3]; E. coli 8739, M9GY, 1 day): 1.00
Synergy Index (SI) = Qa/QA+Qb/QB ([3]; E. coli 8739, M9GY, 1 day): 1.00
SI [3, 14]: 1.00
Qb [3, 14]: 20000 ppm
